# Laboratory results: patent US20230279025A1, “KRAS G12D INHIBITORS” (Mirati Therapeutics, Inc., priority 2020, published 2023)
# Molecular target: KRas G12D (Homo sapiens (Human), UniProt P01116, G12D)
# Assay: KRas G12D Binding Assay (TR-FRET displacement of Cy5 labelled tracer)
# Conditions: GDP-loaded KRAS G12D (amino acids 1:169), 60 minute incubation at 22° C.
# Experimental: After a 60 minute incubation at 22° C., the reaction was measured using a PerkinElmer EnVision multimode plate reader via TR-FRET dual wavelength detection, and the percent of control (POC) calculated using a ratiometric emission factor. […] The POC values were fit to a 4-parameter logistic curve and the IC50 value was determined as the concentration where the curve crosses 50 POC.
# ND stands for “not determined.”
# Chain of KRas G12D (P01116 other isoform, or with tags, fused parts or gaps G12D): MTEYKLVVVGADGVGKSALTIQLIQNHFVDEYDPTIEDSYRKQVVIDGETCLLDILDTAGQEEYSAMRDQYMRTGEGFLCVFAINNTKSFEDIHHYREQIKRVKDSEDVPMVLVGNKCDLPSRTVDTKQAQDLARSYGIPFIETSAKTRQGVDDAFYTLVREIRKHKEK
row,Structure (SMILES),IC50 [nM]
1,"CC(C)c1c(Cl)cc(O)cc1-c1ncc2c(N3C[C@H]4CC[C@@H](C3)N4)nc(OC[C@@]34CCCN3C[C@H](F)C4)nc2c1F [Example 291, 3-(4-((1R,5S)-3,8-diazabicyclo[3.2.1]octan-3-yl)-8-fluoro-2-(((2R,7aS)-2-fluorohexahydro-1H-pyrrolizin-7a-yl)methoxy)pyrido[4,3-d]pyrimidin-7-yl)-5-chloro-4-isopropylphenol]",1.6
2,"Fc1cccc(-c2ncc3c(N4C[C@H]5CC[C@@H](C4)N5)nc(OCC45CCCN4CCC5)nc3c2F)c1C(F)(F)F [Example 292, 4-((1R,5S)-3,8-diazabicyclo[3.2.1]octan-3-yl)-8-fluoro-7-(3-fluoro-2-(trifluoromethyl)phenyl)-2-((tetrahydro-1H-pyrrolizin-7a(5H)-yl)methoxy)pyrido[4,3-d]pyrimidine]",13.1
3,"Fc1c(-c2ccccc2C(F)F)ncc2c(N3C[C@H]4CC[C@@H](C3)N4)nc(OCC34CCCN3CCC4)nc12 [Example 293, 4-((1R,5S)-3,8-diazabicyclo[3.2.1]octan-3-yl)-7-(2-(difluoromethyl)phenyl)-8-fluoro-2-((hexahydro-1H-pyrrolizin-7a-yl)methoxy)pyrido[4,3-d]pyrimidine]",692
4,"Cc1c(F)cccc1-c1ncc2c(N3C[C@H]4CC[C@@H](C3)N4)nc(OCC34CCCN3CCC4)nc2c1F [Example 294, 4-((1R,5S)-3,8-diazabicyclo[3.2.1]octan-3-yl)-8-fluoro-7-(3-fluoro-2-methylphenyl)-2-((hexahydro-1H-pyrrolizin-7a-yl)methoxy)pyrido[4,3-d]pyrimidine]",620
5,"CCc1ccccc1-c1ncc2c(N3C[C@H]4CC[C@@H](C3)N4)nc(OCC34CCCN3CCC4)nc2c1F [Example 295, 4-((1R,5S)-3,8-diazabicyclo[3.2.1]octan-3-yl)-7-(2-ethylphenyl)-8-fluoro-2-((hexahydro-1H-pyrrolizin-7a-yl)methoxy)pyrido[4,3-d]pyrimidine]",192
6,"CN(C)c1ccccc1-c1ncc2c(N3C[C@H]4CC[C@@H](C3)N4)nc(OCC34CCCN3CCC4)nc2c1F [Example 296, 2-(4-((1R,5S)-3,8-diazabicyclo[3.2.1]octan-3-yl)-8-fluoro-2-((hexahydro-1H-pyrrolizin-7a-yl)methoxy)pyrido[4,3-d]pyrimidin-7-yl)-N,N-dimethylaniline]",112
7,Fc1c(-c2ccccc2C2CC2)ncc2c(N3C[C@H]4CC[C@@H](C3)N4)nc(OCC34CCCN3CCC4)nc12 [Example 297],88.9
8,"CC(C)c1c(Cl)cccc1-c1ncc2c(N3C[C@H]4CC[C@@H](C3)N4)nc(OCC34CCCN3CCC4)nc2c1F [Example 298, 4-((1R,5S)-3,8-diazabicyclo[3.2.1]octan-3-yl)-7-(3-chloro-2-isopropylphenyl)-8-fluoro-2-((hexahydro-1H-pyrrolizin-7a-yl)methoxy)pyrido[4,3-d]pyrimidine]",8.3
9,"CC(C)c1c(F)cccc1-c1ncc2c(N3C[C@H]4CC[C@@H](C3)N4)nc(OCC34CCCN3CCC4)nc2c1F [Example 299, 4-((1R,5S)-3,8-diazabicyclo[3.2.1]octan-3-yl)-8-fluoro-7-(3-fluoro-2-isopropylphenyl)-2-((hexahydro-1H-pyrrolizin-7a-yl)methoxy)pyrido[4,3-d]pyrimidine]",132
10,"CCC(C)c1ccccc1-c1ncc2c(N3C[C@H]4CC[C@@H](C3)N4)nc(OCC34CCCN3CCC4)nc2c1F (stereo partly drawn) [Example 300, 4-((1R,5S)-3,8-diazabicyclo[3.2.1]octan-3-yl)-7-(2-(sec-butyl)phenyl)-8-fluoro-2-((hexahydro-1H-pyrrolizin-7a-yl)methoxy)pyrido[4,3-d]pyrimidine]",768
11,"Cc1cccc(-c2ncc3c(N4C[C@H]5CC[C@@H](C4)N5)nc(OCC45CCCN4CCC5)nc3c2F)c1C(C)C [Example 301, 4-((1R,5S)-3,8-diazabicyclo[3.2.1]octan-3-yl)-8-fluoro-2-((hexahydro-1H-pyrrolizin-7a-yl)methoxy)-7-(2-isopropyl-3-methylphenyl)pyrido[4,3-d]pyrimidine]",35.1
